According to ChEMBL document CHEMBL1255329, “Effect of polysorbate 80 on oritavancin binding to plastic surfaces: implications for susceptibility testing” (2008):
Values after ≈ are worked out from the molar mass of the structure shown.

Legend:
Type in all cases: functional
Streptococcus pneumoniae [1] = assay: Antibacterial activity against Streptococcus pneumoniae ATCC 49619 in BHI broth by broth microdilution method in absence of 0.002% polysorbate 80
[2] = Antibacterial activity against Streptococcus Group C clinical isolate by broth microdilution method; settings: Streptococcus sp. 'group C'
Streptococcus agalactiae [3] = assay: Antibacterial activity against Streptococcus agalactiae clinical isolate using 2% LHB by broth microdilution method
Enterococcus faecium [4] = assay: Antibacterial activity against Enterococcus faecium clinical isolate by broth microdilution method
Streptococcus pneumoniae [5] = assay: Antibacterial activity against Streptococcus pneumoniae ATCC 49619 in BHI broth containing 2% LHB by broth microdilution method in absence of 0.002% polysorbate 80
Streptococcus pneumoniae [6] = assay: Antibacterial activity against Streptococcus pneumoniae ATCC 49619 in BHI broth by broth microdilution method in presence of 0.002% polysorbate 80
Enterococcus faecalis [7] = assay: Antibacterial activity against Enterococcus faecalis ATCC 29212 in CAMHB medium containing 2% LHB by broth microdilution method in absence of 0.002% polysorbate 80
Enterococcus faecium [8] = assay: Antibacterial activity against Enterococcus faecium clinical isolate by broth microdilution method in presence of 0.002% polysorbate 80
Streptococcus pyogenes [9] = assay: Antibacterial activity against Streptococcus pyogenes clinical isolate by broth microdilution method in presence of 0.002% polysorbate 80
Streptococcus viridans [10] = assay: Antibacterial activity against Streptococcus viridans group clinical isolate by broth microdilution method
Streptococcus agalactiae [11] = assay: Antibacterial activity against Streptococcus agalactiae clinical isolate using 2% LHB by broth microdilution method in presence of 0.002% polysorbate 80
Streptococcus viridans [12] = assay: Antibacterial activity against Streptococcus viridans group clinical isolate by broth microdilution method in presence of 0.002% polysorbate 80
[13] = Antibacterial activity against Streptococcus Group C clinical isolate by broth microdilution method in presence of 0.002% polysorbate 80; settings: Streptococcus sp. 'group C'
Streptococcus pneumoniae [14] = assay: Antibacterial activity against Streptococcus pneumoniae clinical isolate by broth microdilution method in presence of 0.002% polysorbate 80
Staphylococcus aureus [15] = assay: Antibacterial activity against Staphylococcus aureus clinical isolate by broth microdilution method
Streptococcus pneumoniae [16] = assay: Antibacterial activity against Streptococcus pneumoniae ATCC 49619 in CAMHB medium containing 2% LHB by broth microdilution method in absence of 0.002% polysorbate 80
Streptococcus pyogenes [17] = assay: Antibacterial activity against Streptococcus pyogenes clinical isolate by broth microdilution method
[18] = Antibacterial activity against Streptococcus Group G clinical isolate by broth microdilution method; settings: Streptococcus sp. 'group G'
Streptococcus pneumoniae [19] = assay: Antibacterial activity against Streptococcus pneumoniae clinical isolate by broth microdilution method
Streptococcus pneumoniae [20] = assay: Antibacterial activity against Streptococcus pneumoniae ATCC 49619 in BHI broth containing 2% LHB by broth microdilution method in presence of 0.002% polysorbate 80
[21] = Antibacterial activity against Streptococcus Group G clinical isolate by broth microdilution method in presence of 0.002% polysorbate 80; settings: Streptococcus sp. 'group G'
Staphylococcus [22] = assay: Antibacterial activity against coagulase-negative Staphylococcus clinical isolate by broth microdilution method in presence of 0.002% polysorbate 80
Enterococcus faecalis [23] = assay: Antibacterial activity against Enterococcus faecalis clinical isolate by broth microdilution method
Enterococcus faecalis [24] = assay: Antibacterial activity against Enterococcus faecalis clinical isolate by broth microdilution method in presence of 0.002% polysorbate 80
Streptococcus pneumoniae [25] = assay: Antibacterial activity against Streptococcus pneumoniae ATCC 49619 in CAMHB medium containing 2% LHB by broth microdilution method in presence of 0.002% polysorbate 80
Staphylococcus [26] = assay: Antibacterial activity against coagulase-negative Staphylococcus clinical isolate by broth microdilution method
Staphylococcus aureus [27] = assay: Antibacterial activity against Staphylococcus aureus clinical isolate by broth microdilution method in presence of 0.002% polysorbate 80
Enterococcus faecalis [28] = assay: Antibacterial activity against Enterococcus faecalis ATCC 29212 in CAMHB medium by broth microdilution method in presence of 0.002% polysorbate 80
Streptococcus pyogenes [29] = assay: Ratio of MIC for Streptococcus pyogenes clinical isolate to MIC for Streptococcus pyogenes clinical isolate in presence of 0.002% polysorbate 80
Enterococcus faecium [30] = assay: Ratio of MIC for Enterococcus faecium clinical isolate to MIC for Enterococcus faecium clinical isolate in presence of 0.002% polysorbate 80
Enterococcus faecalis [31] = assay: Antibacterial activity against Enterococcus faecalis ATCC 29212 in CAMHB medium by broth microdilution method in absence of 0.002% polysorbate 80
Staphylococcus [32] = assay: Ratio of MIC for coagulase-negative Staphylococcus clinical isolate to MIC for coagulase-negative Staphylococcus clinical isolate in presence of 0.002% polysorbate 80
Staphylococcus aureus [33] = assay: Antibacterial activity against Staphylococcus aureus ATCC 29213 in CAMHB medium containing 2% LHB by broth microdilution method in absence of 0.002% polysorbate 80
Staphylococcus aureus [34] = assay: Antibacterial activity against Staphylococcus aureus ATCC 29213 in CAMHB medium by broth microdilution method in absence of 0.002% polysorbate 80
Streptococcus agalactiae [35] = assay: Ratio of MIC for Streptococcus agalactiae clinical isolate to MIC for Streptococcus agalactiae clinical isolate in presence of 0.002% polysorbate 80
Enterococcus faecalis [36] = assay: Ratio of MIC for Enterococcus faecalis clinical isolate to MIC for Enterococcus faecalis clinical isolate in presence of 0.002% polysorbate 80
Staphylococcus aureus [37] = assay: Antibacterial activity against Staphylococcus aureus ATCC 29213 in CAMHB medium containing 2% LHB by broth microdilution method in presence of 0.002% polysorbate 80
Enterococcus faecalis [38] = assay: Antibacterial activity against Enterococcus faecalis ATCC 29212 in CAMHB medium containing 2% LHB by broth microdilution method in presence of 0.002% polysorbate 80
Streptococcus viridans [39] = assay: Ratio of MIC for Streptococcus viridans group clinical isolate to MIC for Streptococcus viridans group clinical isolate in presence of 0.002% polysorbate 80
Staphylococcus aureus [40] = assay: Ratio of MIC for Staphylococcus aureus clinical isolate to MIC for Staphylococcus aureus clinical isolate in presence of 0.002% polysorbate 80
Staphylococcus aureus [41] = assay: Antibacterial activity against Staphylococcus aureus ATCC 29213 in CAMHB medium by broth microdilution method in presence of 0.002% polysorbate 80
Streptococcus pneumoniae [42] = assay: Ratio of MIC for Streptococcus pneumoniae clinical isolate to MIC for Streptococcus pneumoniae clinical isolate in presence of 0.002% polysorbate 80

`CN[C@H](CC(C)C)C(=O)N[C@H]1C(=O)N[C@@H](CC(N)=O)C(=O)N[C@H]2C(=O)N[C@H]3C(=O)N[C@H](C(=O)N[C@H](C(=O)O)c4cc(O)cc(O)c4-c4cc3ccc4O)[C@H](O)c3ccc(c(Cl)c3)Oc3cc2cc(c3O[C@@H]2O[C@H](CO)[C@@H](O)[C@H](O)[C@H]2O[C@H]2C[C@](C)(N)[C@H](O)[C@H](C)O2)Oc2ccc(cc2Cl)[C@H]1O` [VANCOMYCIN] gave an MIC (Streptococcus pneumoniae [1]) of 0.25 µg/mL (≈ 0.173 µM), an MIC [2] of 0.12 µg/mL (≈ 0.0828 µM) and an MIC90 (Streptococcus agalactiae [3]) of 0.5 µg/mL (≈ 0.345 µM). It also gave an MIC90 (Enterococcus faecium [4]) of over 256 µg/mL, an MIC (Streptococcus pneumoniae [5]) of 0.25 µg/mL (≈ 0.173 µM) and an MIC (Streptococcus pneumoniae [6]) of 0.25 µg/mL. The MIC (Enterococcus faecalis [7]) was 2 µg/mL (≈ 1.38 µM), the MIC90 (Enterococcus faecium [8]) was over 256 µg/mL and the MIC (Streptococcus pyogenes [9]) was 0.25 µg/mL. It also gave an MIC90 (Streptococcus pyogenes [9]) of 0.25 µg/mL, an MIC90 (Streptococcus viridans [10]) of 0.5 µg/mL (≈ 0.345 µM) and an MIC90 (Streptococcus agalactiae [11]) of 0.5 µg/mL. It also gave an MIC90 (Streptococcus viridans [12]) of 0.5 µg/mL, an MIC [13] of 0.12 µg/mL and an MIC90 (Streptococcus pneumoniae [14]) of 0.25 µg/mL. It also gave an MIC90 (Staphylococcus aureus [15]) of 1 µg/mL (≈ 0.69 µM), an MIC (Streptococcus pneumoniae [16]) of 0.25 µg/mL (≈ 0.173 µM) and an MIC (Streptococcus pyogenes [17]) of 0.25 µg/mL (≈ 0.173 µM). For the same compound, the MIC90 (Streptococcus pyogenes [17]) was 0.25 µg/mL (≈ 0.173 µM), the MIC [18] was 0.25 µg/mL (≈ 0.173 µM) and the MIC90 (Streptococcus pneumoniae [19]) was 0.25 µg/mL (≈ 0.173 µM). The MIC (Streptococcus pneumoniae [20]) was 0.25 µg/mL, the MIC [21] was 0.25 µg/mL and the MIC90 (Staphylococcus [22]) was 2 µg/mL. For the same compound, the MIC90 (Enterococcus faecalis [23]) was 2 µg/mL (≈ 1.38 µM), the MIC90 (Enterococcus faecalis [24]) was 2 µg/mL and the MIC (Streptococcus pneumoniae [25]) was 0.25 µg/mL. It also gave an MIC90 (Staphylococcus [26]) of 1 µg/mL (≈ 0.69 µM) and an MIC90 (Staphylococcus aureus [27]) of 1 µg/mL.
In the case of `CC(=O)N[C@@H]1[C@H](Oc2c3cc4cc2Oc2ccc(cc2Cl)[C@@H](O[C@@H]2O[C@@H](CO)[C@@H](O)[C@H](O)[C@@H]2NC(C)=O)[C@@H]2NC(=O)[C@H](NC(=O)[C@@H]4NC(=O)[C@H]4NC(=O)[C@@H](Cc5ccc(c(Cl)c5)O3)NC(=O)[C@H](N)c3ccc(O)c(c3)Oc3cc(O)cc4c3)c3ccc(O)c(c3)-c3c(O[C@H]4O[C@H](CO)[C@@H](O)[C@@H](O)[C@@H]4O)cc(O)cc3[C@@H](C(=O)O)NC2=O)O[C@@H](CO)[C@@H](O)[C@@H]1O`, the MIC (Streptococcus pneumoniae [1]) was 0.03 µg/mL (≈ 0.017 µM), the MIC [2] was 0.03 µg/mL (≈ 0.017 µM) and the MIC90 (Streptococcus agalactiae [3]) was 0.06 µg/mL (≈ 0.0339 µM). For the same compound, the MIC90 (Enterococcus faecium [4]) was 64 µg/mL (≈ 36.2 µM), the MIC (Enterococcus faecalis [28]) was 0.5 µg/mL and the MIC (Streptococcus pneumoniae [5]) was 0.03 µg/mL (≈ 0.017 µM). For the same compound, the MIC (Streptococcus pneumoniae [6]) was 0.03 µg/mL, the MIC (Enterococcus faecalis [7]) was 1 µg/mL (≈ 0.566 µM) and the MIC90 (Enterococcus faecium [8]) was 128 µg/mL. For the same compound, the MIC90 (Streptococcus pyogenes [9]) was 0.03 µg/mL, the Ratio (Streptococcus pyogenes [29]) was 2 and the MIC90 (Streptococcus viridans [10]) was 0.12 µg/mL (≈ 0.0679 µM). It also gave an MIC90 (Streptococcus agalactiae [11]) of 0.06 µg/mL, an MIC90 (Streptococcus viridans [12]) of 0.12 µg/mL and an MIC [13] of 0.03 µg/mL. The MIC (Streptococcus pneumoniae [14]) was 0.06 µg/mL, the MIC90 (Streptococcus pneumoniae [14]) was 0.06 µg/mL and the MIC90 (Staphylococcus aureus [15]) was 0.5 µg/mL (≈ 0.283 µM). The MIC (Streptococcus pneumoniae [16]) was 0.03 µg/mL (≈ 0.017 µM), the MIC90 (Streptococcus pyogenes [17]) was 0.06 µg/mL (≈ 0.0339 µM) and the Ratio (Enterococcus faecium [30]) was 0.5. For the same compound, the MIC (Enterococcus faecalis [31]) was 0.5 µg/mL (≈ 0.283 µM), the MIC [18] was 0.03 µg/mL (≈ 0.017 µM) and the MIC (Streptococcus pneumoniae [19]) was 0.06 µg/mL (≈ 0.0339 µM). The MIC90 (Streptococcus pneumoniae [19]) was 0.06 µg/mL (≈ 0.0339 µM), the Ratio (Staphylococcus [32]) was 1 and the MIC (Streptococcus pneumoniae [20]) was 0.03 µg/mL. It also gave an MIC [21] of 0.03 µg/mL, an MIC (Staphylococcus aureus [33]) of 1 µg/mL (≈ 0.566 µM) and an MIC (Staphylococcus aureus [34]) of 0.5 µg/mL (≈ 0.283 µM). The Ratio (Streptococcus agalactiae [35]) was 1, the Ratio (Enterococcus faecalis [36]) was 4 and the MIC90 (Staphylococcus [22]) was 2 µg/mL. For the same compound, the MIC90 (Enterococcus faecalis [23]) was 0.5 µg/mL (≈ 0.283 µM), the MIC90 (Enterococcus faecalis [24]) was 0.12 µg/mL and the MIC (Staphylococcus aureus [37]) was 0.5 µg/mL. The MIC (Streptococcus pneumoniae [25]) was 0.03 µg/mL, the MIC (Enterococcus faecalis [38]) was 0.5 µg/mL and the MIC90 (Staphylococcus [26]) was 2 µg/mL (≈ 1.13 µM). It also gave a Ratio (Streptococcus viridans [39]) of 0.5, an MIC90 (Staphylococcus aureus [27]) of 0.5 µg/mL and a Ratio (Staphylococcus aureus [40]) of 1. The MIC (Staphylococcus aureus [41]) was 0.5 µg/mL and the Ratio (Streptococcus pneumoniae [42]) was 1.
